Data reported in PMC5271370, “A High-Content Assay Enables the Automated Screening and Identification of Small Molecules with Specific ALDH1A1-Inhibitory Activity” (PLoS ONE, 2017).

Target: T1, Human ALDH1A2 (Homo sapiens, UniProt O94788)
T1 construct: purchased MyBioSource MBS1005929
T1 sequence (O94788 1-518): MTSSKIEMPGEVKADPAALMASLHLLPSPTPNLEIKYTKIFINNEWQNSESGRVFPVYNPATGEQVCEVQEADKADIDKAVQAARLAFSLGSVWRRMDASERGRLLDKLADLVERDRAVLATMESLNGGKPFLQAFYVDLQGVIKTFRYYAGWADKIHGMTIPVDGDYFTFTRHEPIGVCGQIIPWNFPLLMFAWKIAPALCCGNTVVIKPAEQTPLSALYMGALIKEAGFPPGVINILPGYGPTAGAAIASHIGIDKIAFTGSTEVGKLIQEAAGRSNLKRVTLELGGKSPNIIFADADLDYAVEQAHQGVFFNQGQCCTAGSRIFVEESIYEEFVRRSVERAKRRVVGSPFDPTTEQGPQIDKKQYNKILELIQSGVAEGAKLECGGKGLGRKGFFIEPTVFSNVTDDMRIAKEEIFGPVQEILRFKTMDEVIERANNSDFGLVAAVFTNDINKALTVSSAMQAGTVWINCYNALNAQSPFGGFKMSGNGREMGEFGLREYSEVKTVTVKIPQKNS
Assay: 1,536-well enzymatic assay (NADH fluorescence), ALDH1A2
Format: biochemical
Conditions: not given
Excerpt: To validate our optimized assay, we assembled a set of 20 previously reported ALDH inhibitors, with varying degrees of target specificity (Table 1 and S4 Fig). […] Briefly, the assay measures the dehydrogenase activity of recombinant human ALDH1A1, ALDH1A2, ALDH1A3, ALDH2 or ALDH3A1 using NAD(P)^+ and either propionaldehyde or benzaldehyde as substrates. An orthogonal resorufin-based assay format was also run with isolated ALDH1A1 to rule out potential false positives due to intrinsic compound fluorescence.
Human ALDH1A1 and ALDH3A1 were expressed and purified as described elsewhere. Human ALDH2 was purchased from Abcam (ab87415). Human ALDH1A2 and ALDH1A3 were purchased from MyBioSource (MBS1005929; San Diego, CA) and ThermoFisher (11636H07E50), respectively. The inhibitory activity of compounds against ALDHs was measured according to protocols described previously. Briefly, 3 μL of enzyme (final concentrations of 20 nM for ALDH1A1, 50 nM for ALDH1A2, 50 nM for ALDH1A3, 75 nM for ALDH2 and 5 nM for ALDH3A1) in assay buffer (100 mM HEPES pH 7.5 with 0.01% Tween 20) were dispensed into a 1,536-well solid-bottom black plate (Greiner Bio One, Monroe, NC). […] Samples were incubated (room temperature, protected from light) for 15 minutes followed by a 1 μL substrate addition of NAD^+ and Propionaldehyde (final concentrations of 1 mM and 80 μM, respectively) for ALDH1A1, 1A2, 1A3, and ALDH2 or NADP^+ and benzaldehyde (final concentrations of 1 mM and 200 μM, respectively) for ALDH3A1. Plates were centrifuged at 1,000 rpm for 15 seconds, then read in kinetic mode on a ViewLux High-throughput CCD imager (PerkinElmer, Waltham, MA) equipped with standard UV fluorescence optics (340 nm excitation, 450 nm emission) for 5 (ALDH1A1, ALDH1A2, ALDH2, ALDH3A1) or 30 (ALDH1A3) minutes. The change in fluorescence intensity over the 5- or 30-minute reaction period was normalized against no-inhibitor and no-enzyme controls and the resulting percent inhibition data were fitted to a 4-parameter Hill equation. Bay-11 7085 was used as intraplate control. To account for artifacts due to intrinsic compound fluorescence in the above spectrum, compounds were also tested in an orthogonal resorufin assay format with optics of excitation 525 nm/emission 598 nm as described before. The same parameters as the NADH assay were used for the resorufin assay, with the addition of (final) 133 μg/mL diaphorase and 37 μM resazurin to the assay solution. Same controls were used in both formats.

Compared with O=c1c(-c2ccc(O)cc2)coc2cc(O[C@@H]3O[C@H](CO)[C@@H](O)[C@H](O)[C@H]3O)ccc12 [Daidzin], Cc1cc2c(C(C)C)c(O)c(O)c(C=O)c2c(O)c1-c1c(C)cc2c(C(C)C)c(O)c(O)c(C=O)c2c1O [Gossypol] is 4-fold lower in IC50: 21500 nM for the first, 5390 nM for the second.

Same assay, conditions: hits of dual cell-based screen (Table 2); read-out: Biochemical IC50 ALDH1A2

In the case of CC(C)N(C(=O)CCl)c1ccccc1 [Propachlor], the IC50 is reported as 320 nM.

Same assay, conditions: validation set; 50 nM enzyme, NAD+ and propionaldehyde; read-out: Biochemical IC50 ALDH1A2

First: COc1ccc(C(=O)CCN(C)C)cc1F [Aldi-2]
Second: CC(C)(C)c1ccc(S(=O)(=O)/C=C/C#N)cc1 [Bay-11-7085]
The IC50 of the first is 3.2-fold lower: 120 nM for the first, 380 nM for the second. The first is the more potent here.

Compared with Cc1nc2ccccc2n1S(=O)(=O)c1ccc(F)cc1 [CB7], CCOc1ccc(NCC(=O)Nc2ccc(Cl)cc2C)cc1 [CID 725345] is 45-fold lower in IC50: 15200 nM for the first, 340 nM for the second.

COc1cccc2cc(C(=O)CC3(O)C(=O)N(Cc4ccccc4)c4ccccc43)c(=O)oc12 (centres unmarked) [CID 2929292] and CCN(CC)c1ccc(C=O)cc1 [DEAB, 4-N,N-diethylaminobenzaldehyde] are within 1.5-fold of each other in IC50: 3030 nM for the first, 3400 nM for the second.

First: CCN(CC)C(=S)SSC(=S)N(CC)CC [Disulfiram]
Second: Nc1ccccc1C(=O)CC(N)C(=O)O (centres unmarked) [Kynurenine]
The IC50 of the first is 170-fold lower: 140 nM for the first, 24100 nM for the second. The first is the more potent here.

Compared with C#CCN(C)Cc1ccccc1 [Pargyline], O=C1Nc2ccccc2C1=O [indoline-2,3-dione] is 35-fold lower in IC50: 24100 nM for the first, 680 nM for the second. The second is the more potent here.

CVT-10216 was tested, and the IC50 was 340 nM.
